Assay results taken from article PMC12409542, “Synthesis and Computational Evaluation of N‑Acetyl-Derived Schiff Bases Incorporating 1,2,4-Triazoles for Dual Inhibition of Prostate Cancer Cells and Carbonic Anhydrases” (ACS Omega, 2025).

Assays:
PNT1a cells = test: Cell viability assay (CVDK-8), PNT1a cells; assay type: cell-based; details: Homo sapiens, viability of PNT1a normal prostate epithelial cells, 24 h treatment
Procedure: (§1) In this research, the inhibitory effects of the compounds under investigation on cell viability were assessed using two distinct human cell lines: specifically, the DU145 cell line, representative of prostate cancer, and the PNT1a cell line, which serves as a model for normal human prostate epithelial cells. Cells were routinely cultured in RPMI-1640 medium supplemented with 10% fetal bovine serum, 1% penicillin/streptomycin (Gibco), and 1% L-glutamine. All cells were maintained in a 5% CO2 humidified incubator at 37 °C.
(§2) Effects of all compounds synthesized in this study on the viability of PNT1a and DU145 cells were analyzed using the Cell Viability Detection Kit-8 (CVDK-8, Ecotech Biotechnology, Erzurum, Turkey). In brief, cells were seeded at a concentration of 3 × 10^3 cells per well within 100 μL medium in 96 well plates. Then, cells were treated with compounds at concentrations of […] for 24 h. After treatment with the test compounds, the medium was removed and fresh RPMI-1640 medium containing 1/10 CVDK- 8 reagent was added to each well, and plates were incubated for 3 h at 37 °C protected from light. After the incubation period, optical densities were measured using Epoch spectrophotometer at 450 nm. For cell culture, experiments were performed in triplicate, and data were analyzed by t tests.

hCA II = hCA II (Homo sapiens, UniProt P00918); test: hCA II inhibition, spectrophotometric esterase method (p-nitrophenyl acetate); assay type: biochemical; details: p-nitrophenyl acetate substrate, 348 nm; for Ki: read-out: K i (μM) hCA II
Procedure: (§3) In this study, Sepharose-4B L-Tyrosine sulfanilamide affinity chromatography was employed to purify both CA isozymes in a single phase. A previous process was used to manufacture the column chemical material for affinity chromatography containing Sepharose-4B-L-Tyrosine-Sulfanilamide. As previously shown, the protein molecules’ flow in the column eluates was measured spectrophotometrically at 280 nm. […] The substrate used, p-nitrophenyl acetate, was enzymatically converted by both isoenzymes into p-nitrophenolate ions.

DU145 cells = test: Cell viability assay (CVDK-8), DU145 cells; assay type: cell-based, human; details: for effect on viability of cancer cells (in words): DU145, 1, 10 and 100 μM, 24 h; for IC50: Homo sapiens, DU-145, viability of DU145 cells, 24 h treatment, CVDK-8; for selectivity indices (SI) PNT1a IC50/DU145 IC50: ratio PNT1a IC50/DU145 IC50, 24 h
Procedure: as §1, §2

hCA I = hCA I (Homo sapiens, UniProt P00915); test: hCA I inhibition, spectrophotometric esterase method (p-nitrophenyl acetate); assay type: biochemical; details: p-nitrophenyl acetate substrate, 348 nm; for Ki: read-out: K i (μM) hCA I
Sequence of hCA I (P00915 whole entry): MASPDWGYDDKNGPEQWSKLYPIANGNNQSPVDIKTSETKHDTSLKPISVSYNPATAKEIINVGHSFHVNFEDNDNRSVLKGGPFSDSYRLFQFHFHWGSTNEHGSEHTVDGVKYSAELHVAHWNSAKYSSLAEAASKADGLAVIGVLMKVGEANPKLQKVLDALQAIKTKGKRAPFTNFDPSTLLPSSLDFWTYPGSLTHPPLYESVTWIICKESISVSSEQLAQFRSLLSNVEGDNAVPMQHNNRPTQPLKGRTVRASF
Procedure: as §3

Row | SMILES | IC50 (hCA II) | Ki (hCA II) | IC50 (DU145 cells) | selectivity indices (SI) PNT1a IC50/DU145 IC50 (DU145 cells) | IC50 (hCA I) | Ki (hCA I) | IC50 (PNT1a cells) | effect on viability of cancer cells (in words) (DU145 cells)
1 | CC(=O)n1nc(Cc2ccc(Cl)cc2)n(N=Cc2cccc(OS(=O)(=O)c3ccc(C)cc3)c2)c1=O [6e, 3-[((1-Acetyl-3-p-chlorobenzyl-5-oxo-1,5-dihydro-4H-1,2,4-triazol-4-yl)-imino)-methyl]-phenyl-4-methylbenzenesulfonate] | 16.8 µM | 18.1 ± 2.47 µM | > 100 µM | 5.23 | 12.3 µM | 14.2 ± 1.1 µM | > 100 µM | decreased the viability of cancer cells in a dose-dependent manner
2 | CCc1nn(C(C)=O)c(=O)n1N=Cc1cccc(OS(=O)(=O)c2ccc(C)cc2)c1 [6b, 3-[((1-Acetyl-3-ethyl-5-oxo-1,5-dihydro-4H-1,2,4-triazol-4-yl)-imino)-methyl]-phenyl-4-methylbenzenesulfonate] | 18.4 µM | 21.9 ± 3.48 µM | – | – | 13.7 µM | 16.7 ± 2.14 µM | – | –
3 | CC(=O)n1nc(C)n(N=Cc2cccc(OS(=O)(=O)c3ccc(C)cc3)c2)c1=O [6a, 3-[((1-Acetyl-3-methyl-5-oxo-1,5-dihydro-4H-1,2,4-triazol-4-yl)-imino)-methyl]-phenyl-4-methylbenzenesulfonate] | 15.3 µM | 19.7 ± 2.48 µM | 73.2 ± 11.5 µM | 6.74 | 11.4 µM | 14 ± 1.15 µM | > 100 µM | decreased the viability of cancer cells in a dose-dependent manner

These reach a lower IC50 (hCA II). Values come first.

Row | IC50 (hCA II) | Ki (hCA II) | IC50 (DU145 cells) | selectivity indices (SI) PNT1a IC50/DU145 IC50 (DU145 cells) | IC50 (hCA I) | Ki (hCA I) | SMILES | IC50 (PNT1a cells) | effect on viability of cancer cells (in words) (DU145 cells)
4 | 14.5 µM | 17.3 ± 2.41 µM | > 100 µM | 1.22 | 10.2 µM | 13.1 ± 1.02 µM | CC(=O)n1nc(Cc2ccccc2)n(N=Cc2cccc(OS(=O)(=O)c3ccc(C)cc3)c2)c1=O [6c, 3-[((1-Acetyl-3-benzyl-5-oxo-1,5-dihydro-4H-1,2,4-triazol-4-yl)-imino)-methyl]-phenyl-4-methylbenzenesulfonate] | > 100 µM | did not suppress the viability of cancer cells in low concentrations
5 | 10.6 µM | 11.7 ± 1.01 µM | 49.8 ± 11.1 µM | 2.28 | 7.12 µM | 9.26 ± 0.88 µM | CC(=O)n1nc(Cc2ccc(C)cc2)n(N=Cc2cccc(OS(=O)(=O)c3ccc(C)cc3)c2)c1=O [6d, 3-[((1-Acetyl-3-p-methylbenzyl-5-oxo-1,5-dihydro-4H-1,2,4-triazol-4-yl)-imino)-methyl]-phenyl-4-methylbenzenesulfonate] | > 100 µM | did not suppress the viability of cancer cells in low concentrations
